# According to PubChem BioAssay (NCI):
# Where “and” joins values, the source holds several entries; their conditions need not be identical. Equal entries are not always repeated.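 Briefly, cells in 96-well plates were exposed to five compound concentrations for 48 h, and endpoints were estimated by linear interpolation. Here, GI50 denotes the concentration required for 50% inhibition of growth. Definition used: TGI = concentration required for complete inhibition of growth.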
# Columns and labels:
# Assay in all cases: NCI-60 cell line screen, 48 h
# SK-MEL-5 melanoma = system: SK-MEL-5 melanoma
# SK-OV-3 ovarian = system: SK-OV-3 ovarian
# HOP-62 NSCLC = system: HOP-62 NSCLC
# OVCAR-5 ovarian = system: OVCAR-5 ovarian
# KM12 colon = system: KM12 colon
# SF-268 CNS = system: SF-268 CNS
# 786-0 renal = system: 786-0 renal
# HS 578T breast = system: HS 578T breast
# NCI-H23 lung = system: NCI-H23 lung
# NCI-H522 lung = system: NCI-H522 lung
# LOX IMVI melanoma = system: LOX IMVI melanoma
# U251 CNS = system: U251 CNS
# CCRF-CEM leukemia = system: CCRF-CEM leukemia
# SNB-19 CNS = system: SNB-19 CNS
# SW-620 colon = system: SW-620 colon
# SN12C renal = system: SN12C renal
# M14 melanoma = system: M14 melanoma
# NCI/ADR-RES ovarian = system: NCI/ADR-RES ovarian
# OVCAR-4 ovarian = system: OVCAR-4 ovarian
# HOP-92 NSCLC = system: HOP-92 NSCLC
# HCC-2998 colon = system: HCC-2998 colon
# EKVX NSCLC = system: EKVX NSCLC
# SF-295 CNS = system: SF-295 CNS
# K-562 leukemia = system: K-562 leukemia
# MALME-3M melanoma = system: MALME-3M melanoma
# MOLT-4 leukemia = system: MOLT-4 leukemia
# RPMI-8226 leukemia = system: RPMI-8226 leukemia
# TK-10 renal = system: TK-10 renal
# COLO 205 colon = system: COLO 205 colon
# SNB-75 CNS = system: SNB-75 CNS
# UACC-257 melanoma = system: UACC-257 melanoma
# OVCAR-3 ovarian = system: OVCAR-3 ovarian
# MDA-MB-231 breast = system: MDA-MB-231 breast
# CAKI-1 renal = system: CAKI-1 renal
# SR leukemia = system: SR leukemia
# MDA-MB-435 = system: MDA-MB-435
# UO-31 renal = system: UO-31 renal
# SF-539 CNS = system: SF-539 CNS
# DU-145 prostate = system: DU-145 prostate
# BT-549 breast = system: BT-549 breast
# HCT-116 colon = system: HCT-116 colon
# OVCAR-8 ovarian = system: OVCAR-8 ovarian
# MCF7 breast = system: MCF7 breast
# A549 NSCLC = system: A549 NSCLC
# IGROV1 ovarian = system: IGROV1 ovarian
# A498 renal = system: A498 renal
# MDA-N = system: MDA-N
# NCI-H460 lung = system: NCI-H460 lung
# HT29 colon = system: HT29 colon
# NCI-H226 lung = system: NCI-H226 lung
# SK-MEL-28 melanoma = system: SK-MEL-28 melanoma
# RXF 393 renal = system: RXF 393 renal
# SK-MEL-2 melanoma = system: SK-MEL-2 melanoma
# HCT-15 colon = system: HCT-15 colon
# T-47D breast = system: T-47D breast
# UACC-62 melanoma = system: UACC-62 melanoma
# PC-3 prostate = system: PC-3 prostate
# ACHN renal = system: ACHN renal
# HL-60(TB) leukemia = system: HL-60(TB) leukemia
compound,measurement,setting,value
CCCOc1c2cc(COC3OC(CO)C(O)C(O)C3O)cc1Cc1cc(COC3OC(CO)C(O)C(O)C3O)cc(c1OCCC)Cc1cc(COC3OC(CO)C(O)C(O)C3O)cc(c1OCCC)Cc1cc(COC3OC(CO)C(O)C(O)C3O)cc(c1OCCC)C2 (stereo not given),GI50,SK-MEL-5 melanoma,96.7 µM and > 100 µM and 17.1 µM
same,TGI,SK-MEL-5 melanoma,> 100 µM and 32.7 µM
same,GI50,SK-OV-3 ovarian,> 100 µM and 34.9 µM
same,TGI,SK-OV-3 ovarian,> 100 µM
same,GI50,HOP-62 NSCLC,> 100 µM and 29.2 µM
same,TGI,HOP-62 NSCLC,> 100 µM and 93.7 µM
same,GI50,OVCAR-5 ovarian,41.8 µM and > 100 µM and 22 µM
same,TGI,OVCAR-5 ovarian,> 100 µM and 55.2 µM
same,GI50,KM12 colon,75.4 µM and > 100 µM and 19.3 µM
same,TGI,KM12 colon,> 100 µM and 39.2 µM
same,GI50,SF-268 CNS,> 100 µM and 80.4 µM and 17.5 µM
same,TGI,SF-268 CNS,> 100 µM and 33.3 µM
same,GI50,786-0 renal,> 100 µM and 28.1 µM
same,TGI,786-0 renal,> 100 µM and 89.8 µM
same,TGI,HS 578T breast,> 100 µM
same,GI50,NCI-H23 lung,69.6 µM and 71 µM and 21.2 µM
same,TGI,NCI-H23 lung,> 100 µM and 52.8 µM
same,GI50,NCI-H522 lung,32.4 µM and 72.8 µM and 13.7 µM
same,TGI,NCI-H522 lung,> 100 µM and 26.6 µM
same,GI50,LOX IMVI melanoma,> 100 µM and 58.6 µM and 17.6 µM
same,TGI,LOX IMVI melanoma,> 100 µM and 31.4 µM
same,GI50,U251 CNS,49.3 µM and 48.5 µM and 16.6 µM
same,TGI,U251 CNS,> 100 µM and 31.6 µM
same,GI50,CCRF-CEM leukemia,7.52 µM and 17.6 µM
same,TGI,CCRF-CEM leukemia,> 100 µM and 36.5 µM
same,GI50,SNB-19 CNS,66.1 µM and > 100 µM and 17.5 µM
same,TGI,SNB-19 CNS,> 100 µM and 32.1 µM
same,GI50,SW-620 colon,99.9 µM and > 100 µM and 15.6 µM
same,TGI,SW-620 colon,> 100 µM and 36.2 µM
same,GI50,SN12C renal,96.6 µM and > 100 µM and 18.5 µM
same,TGI,SN12C renal,> 100 µM and 43.5 µM
same,GI50,M14 melanoma,61.1 µM and 56.1 µM and 16.2 µM
same,TGI,M14 melanoma,> 100 µM and 32.4 µM
same,TGI,NCI/ADR-RES ovarian,> 100 µM
same,TGI,OVCAR-4 ovarian,> 100 µM and 76.6 µM
same,TGI,HOP-92 NSCLC,> 100 µM
same,TGI,HCC-2998 colon,> 100 µM
same,GI50,EKVX NSCLC,> 100 µM and 35.5 µM
same,TGI,EKVX NSCLC,> 100 µM
same,GI50,SF-295 CNS,67.5 µM and 84.6 µM and 17.4 µM
same,TGI,SF-295 CNS,> 100 µM and 35.7 µM
same,GI50,K-562 leukemia,36.7 µM and 62.2 µM and 15.8 µM
same,TGI,K-562 leukemia,> 100 µM and 32.5 µM
same,TGI,MALME-3M melanoma,> 100 µM
same,TGI,MOLT-4 leukemia,29 µM
same,TGI,RPMI-8226 leukemia,> 100 µM
same,GI50,TK-10 renal,> 100 µM and 46.8 µM
same,TGI,TK-10 renal,> 100 µM
same,GI50,COLO 205 colon,38.9 µM and 35.9 µM and 13.1 µM
same,TGI,COLO 205 colon,> 100 µM and 26.1 µM
same,GI50,SNB-75 CNS,18.5 µM and 55.4 µM and 22.2 µM
same,TGI,SNB-75 CNS,93.7 µM and > 100 µM and 62.8 µM
same,GI50,UACC-257 melanoma,67.1 µM and > 100 µM and 33.6 µM
same,TGI,UACC-257 melanoma,> 100 µM
same,GI50,OVCAR-3 ovarian,53.2 µM and > 100 µM and 19.3 µM
same,TGI,OVCAR-3 ovarian,> 100 µM and 51.7 µM
same,GI50,MDA-MB-231 breast,45.2 µM and > 100 µM and 17 µM
same,TGI,MDA-MB-231 breast,> 100 µM and 34.1 µM
same,GI50,CAKI-1 renal,> 100 µM and 25 µM
same,TGI,CAKI-1 renal,> 100 µM and 64.8 µM
same,GI50,SR leukemia,29.9 µM and 13.8 µM
same,TGI,SR leukemia,48.9 µM and 29.5 µM
same,GI50,MDA-MB-435,57.2 µM and > 100 µM and 20.6 µM
same,TGI,MDA-MB-435,> 100 µM and 41.1 µM
same,GI50,UO-31 renal,> 100 µM and 28.8 µM
same,TGI,UO-31 renal,> 100 µM
same,GI50,SF-539 CNS,> 100 µM and 25 µM
same,TGI,SF-539 CNS,> 100 µM and 79.8 µM
same,GI50,DU-145 prostate,> 100 µM and 35.1 µM
same,TGI,DU-145 prostate,> 100 µM
same,GI50,BT-549 breast,> 100 µM and 72.8 µM and 21.8 µM
same,TGI,BT-549 breast,> 100 µM and 36.4 µM
same,GI50,HCT-116 colon,48.6 µM and > 100 µM and 16.7 µM
same,TGI,HCT-116 colon,> 100 µM and 32.2 µM
same,GI50,OVCAR-8 ovarian,> 100 µM and 18.4 µM
same,TGI,OVCAR-8 ovarian,> 100 µM and 42.6 µM
same,GI50,MCF7 breast,53.7 µM and > 100 µM and 19.4 µM
same,TGI,MCF7 breast,> 100 µM and 44.3 µM
same,GI50,A549 NSCLC,49.5 µM and > 100 µM and 26.9 µM
same,TGI,A549 NSCLC,> 100 µM and 94.4 µM
same,GI50,IGROV1 ovarian,60.2 µM and > 100 µM and 15.9 µM
same,TGI,IGROV1 ovarian,> 100 µM and 40.8 µM
same,GI50,A498 renal,88.4 µM and > 100 µM and 16.3 µM
same,TGI,A498 renal,> 100 µM and 42.5 µM
same,GI50,MDA-N,> 100 µM and 18.4 µM
same,TGI,MDA-N,> 100 µM and 34.8 µM
same,GI50,NCI-H460 lung,56.9 µM and > 100 µM and 30.3 µM
same,TGI,NCI-H460 lung,> 100 µM and 92.3 µM
same,GI50,HT29 colon,> 100 µM and 89.8 µM and 32.6 µM
same,TGI,HT29 colon,> 100 µM
same,GI50,NCI-H226 lung,59.2 µM and > 100 µM and 17.7 µM
same,TGI,NCI-H226 lung,> 100 µM and 40.1 µM
same,GI50,SK-MEL-28 melanoma,> 100 µM and 14.5 µM
same,TGI,SK-MEL-28 melanoma,> 100 µM and 29 µM
same,GI50,RXF 393 renal,14.2 µM and 23.9 µM
same,TGI,RXF 393 renal,33.9 µM and 87 µM and 77.4 µM
same,GI50,SK-MEL-2 melanoma,57 µM and 96.4 µM and 15.7 µM
same,TGI,SK-MEL-2 melanoma,> 100 µM and 35.6 µM
same,GI50,HCT-15 colon,> 100 µM and 42.1 µM
same,TGI,HCT-15 colon,> 100 µM
same,GI50,T-47D breast,34.3 µM and 69.9 µM and 29 µM
same,TGI,T-47D breast,> 100 µM
same,GI50,UACC-62 melanoma,90.7 µM and > 100 µM and 16 µM
same,TGI,UACC-62 melanoma,> 100 µM and 35 µM
same,GI50,PC-3 prostate,> 100 µM and 17.2 µM
same,TGI,PC-3 prostate,> 100 µM and 46.2 µM
same,GI50,ACHN renal,> 100 µM and 23.9 µM
same,TGI,ACHN renal,> 100 µM and 63.4 µM
same,GI50,HL-60(TB) leukemia,27.8 µM and 78 µM and 7.86 µM
same,TGI,HL-60(TB) leukemia,77.7 µM and > 100 µM and 21.6 µM
